Measured values as given in US6953789B2, “Thiol compounds, their production and use” (Takeda Chemical Industries, Ltd., priority 1998, dated 2005).

Target: T1, recombinant human MMP-13 (Homo sapiens, UniProt P45452)
T1 construct: made in house; host or cells: baculovirus (pBlueBac4 / Bac-N-Blue; virus made in Sf9), expressed in High-Five insect cells; culture supernatant used
Experiment: Assay of MMP-13 inhibiting activity (fluorogenic peptide substrate)
Type: biochemical
Conditions: Table 9; 37° C., 2 hours
Summary of the method: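 Baculovirus-expressed human MMP-13 (High-Five cell supernatant) in pH 7.5 Tris buffer with 200 mM NaCl, 20 mM CaCl2, 0.1% Brij 35, 1 mM 2-mercaptoethanol; reaction started with 40 μM (stock) MOCAc-PLGL-A2pr(DNP)-AR-NH2, 2 h at 37 °C, stopped at pH 3.0. Fluorescence 330/405 nm; IC50 versus no-compound control.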

Which IC50 does the source give for `O=C1CC(S)CN1Cc1ccc(Oc2ccccc2F)cc1` (centres unmarked) [Example 113, 4-Mercapto-1-[4-(2′-fluorophenoxy)benzyl]pyrrolidin-2-one] here?
The IC50 was 4 nM.

`CC(=O)SC1CC(=O)N(Cc2ccc(Oc3cccc(F)c3)cc2)C1` (centres unmarked) [Example 114, 4-Acetylthio-1-[4-(3′-fluorophenoxy)benzyl]pyrrolidin-2-one] was tested. Which IC50 did it give?
Its IC50 is 10 nM.

With `O=C1CC(S)CN1Cc1ccc(Oc2cccc(F)c2)cc1` (centres unmarked) [Example 115, 4-Mercapto-1-[4-(3′-fluorophenoxy)benzyl]pyrrolidin-2-one] as the molecule, how does the IC50 read?
Its IC50 is 4 nM.

Which IC50 does the source give for `CC(=O)S[C@H]1CC(=O)N(Cc2ccc(Oc3ccc(F)cc3)cc2)C1` [Example 116, (S)-4-Acethylthio-1-[4-(4′-fluorophenoxy)benzyl)pyrrolidin-2-one] here?
The IC50 was 7000 nM.

`CC(=O)S[C@@H]1CC(=O)N(Cc2ccc(Oc3ccc(F)cc3)cc2)C1` [Example 117, (R)-4-Acethylthio-1-[4-(4′-fluorophenoxy)benzyl]pyrrolidin-2-one] was tested. Which IC50 did it give?
The IC50 was 7 nM.

For `O=C1C[C@@H](S)CN1Cc1ccc(Oc2ccc(F)cc2)cc1` [Example 118, (R)-4-Mercapto-1-[4-(4′-fluorophenoxy)benzyl]pyrrolidin-2-one], which IC50 is on record?
The IC50 was 2 nM.

Which IC50 does the source give for `CC(=O)SC1CC(=O)N(Cc2ccc(Oc3ccc(F)cc3F)cc2)C1` (centres unmarked) [Example 119, 4-Acetylthio-1-[4-(2′,4′-difluorophenoxy)benzyl]pyrrolidin-2-one] here?
Its IC50 is 10 nM.

`O=C1CC(S)CN1Cc1ccc(Oc2ccc(F)cc2F)cc1` (centres unmarked) [Example 120, 4-Mercapto-1-[4-(2′,4′-difluorophenoxy)benzyl]pyrrolidin-2-one] was tested. Which IC50 did it give?
Its IC50 is 7 nM.

How did the IC50 turn out when `CC(=O)SC1CC(=O)N(Cc2ccc(Oc3ccc(F)c(F)c3)cc2)C1` (centres unmarked) [Example 121, 4-Acetylthio-1-[4-(3′,4′-difluorophenoxy)benzyl]pyrrolidin-2-one] was run?
Its IC50 is 20 nM.

`O=C1CC(S)CN1Cc1ccc(Oc2ccc(F)c(F)c2)cc1` (centres unmarked) [Example 122, 4-Mercapto-1-[4-(3′,4′-difluorophenoxy)benzyl]pyrrolidin-2-one] was tested. Which IC50 did it give?
Its IC50 is 20 nM.

Which IC50 does the source give for `CC(=O)S[C@@H]1CC(=O)N(Cc2ccc(Oc3ccc(C)cc3)cc2)C1` [Example 123, (R)-4-Acethylthio-1-[4-(4′-methylphenoxy)benzyl]pyrrolidin-2-one] here?
Its IC50 is 8.9 nM.

Which IC50 does the source give for `CCc1ccc(Oc2ccc(CN3C[C@H](SC(C)=O)CC3=O)cc2)cc1` [Example 124, (R)-4-Acethylthio-1-[4-(4′-ethylphenoxy)benzyl]pyrrolidin-2-one] here?
The IC50 was 7 nM.

How did the IC50 turn out when `CC(=O)S[C@@H]1CC(=O)N(Cc2ccc(Oc3ccc(C)cc3)cc2)C1` [Example 127, (R)-4-Acetylthio-1-[4-(4′-methylphenoxy)benzyl]pyrrolidin-2-one] was run?
The IC50 was 10 nM.

Which IC50 does the source give for `Cc1ccc(Oc2ccc(CN3CC(S)CC3=O)cc2)cc1` (centres unmarked) [Example 128, 4-Mercapto-1-[4-(4′-methylphenoxy)benzyl]pyrrolidin-2-one] here?
Its IC50 is 7 nM.

`CC(=O)SC1CC(=O)N(Cc2ccc(Oc3ccc(C(F)(F)F)cc3)cc2)C1` (centres unmarked) [Example 129, 4-Acetylthio-1-[4-(4′-(trifluoromethyl)phenoxy)benzyl]pyrrolidin-2-one] was tested. Which IC50 did it give?
Its IC50 is 30 nM.

Which IC50 does the source give for `O=C1CC(S)CN1Cc1ccc(Oc2ccc(C(F)(F)F)cc2)cc1` (centres unmarked) [Example 130, 4-Mercapto-1-{4-[4′-(trifluoromethyl)phenoxy]benzyl}pyrrolidin-2-one] here?
Its IC50 is 10 nM.

How did the IC50 turn out when `CCOC(=O)c1ccc(Oc2ccc(CN3CC(SC(C)=O)CC3=O)cc2)cc1` (centres unmarked) [Example 131, 4-Acetylthio-1-[4-(4′ethoxycarbonylphenoxy)benzyl]pyrrolidin-2-one] was run?
Its IC50 is 20 nM.

Same assay, conditions: Table 12; 37° C., 2 hours

How did the IC50 turn out when `CC(=O)SC1CCC(=O)N(Cc2ccc(Oc3ccccc3)cc2)C1` (stereo not drawn) [Example 108, S-[6-Oxo-1-(4-phenoxybenzyl)-3-piperidinyl]ethanethioate] was run?
The IC50 was 300 nM.

Which IC50 does the source give for `O=C1CCC(S)CN1Cc1ccc(Oc2ccccc2)cc1` (centres unmarked) [Example 109, 1-(4-Phenoxybenzyl)-5-sulfanyl-2-piperidinone] here?
Its IC50 is 60 nM.

For `O=C1CC(S)CCN1Cc1ccc(Oc2ccccc2)cc1` (centres unmarked) [Example 111, 1-(4-Phenoxybenzyl)-4-sulfanyl-2-piperidinone], which IC50 is on record?
The IC50 was 17 nM.
